According to PubChem BioAssay (NCI):
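Protocol summary: plate cells (96-well), add compound at 5 concentrations, incubate 48 h, interpolate endpoints linearly. GI50 is the concentration that inhibits growth by half. The concentration for full growth arrest is given as TGI.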

Key:
Test in all cases: growth of human tumour cells (NCI), 48 h
MDA-MB-231 breast = system: MDA-MB-231 breast
HT29 colon = system: HT29 colon
EKVX NSCLC = system: EKVX NSCLC
SF-539 CNS = system: SF-539 CNS
HS 578T breast = system: HS 578T breast
HCT-116 colon = system: HCT-116 colon
NCI/ADR-RES ovarian = system: NCI/ADR-RES ovarian
SR leukemia = system: SR leukemia
UACC-62 melanoma = system: UACC-62 melanoma
HOP-92 NSCLC = system: HOP-92 NSCLC

Row | SMILES | GI50 (MDA-MB-231 breast) | TGI (MDA-MB-231 breast) | GI50 (HT29 colon) | TGI (HT29 colon) | GI50 (EKVX NSCLC) | TGI (EKVX NSCLC) | GI50 (SF-539 CNS) | TGI (SF-539 CNS) | GI50 (HS 578T breast) | TGI (HS 578T breast) | GI50 (HCT-116 colon) | TGI (HCT-116 colon) | GI50 (NCI/ADR-RES ovarian) | TGI (NCI/ADR-RES ovarian) | GI50 (SR leukemia) | TGI (SR leukemia) | GI50 (UACC-62 melanoma) | TGI (UACC-62 melanoma) | GI50 (HOP-92 NSCLC) | TGI (HOP-92 NSCLC)
1 | O=C(Nc1ccc(Cl)c(Cl)c1)c1cccc(NC2=C(Cl)C(=O)N(Cc3ccccc3)C2=O)c1 | 26.4 µM | > 100 µM | 59.6 µM | > 100 µM | 20.2 µM | 64.5 µM | 7.75 µM | 38.2 µM | 45.4 µM | > 100 µM | 27.8 µM | > 100 µM | 24.4 µM | 88.9 µM | 8.37 µM | 68 µM | 37.1 µM | > 100 µM |  | 
2 | COC(=O)CCC(=O)C(=O)OC | 39500 µM |  | 24200 µM | 85900 µM | 20600 µM |  | 24500 µM |  | 26600 µM | 97100 µM | 30600 µM |  | 72600 µM |  | 4360 µM | 41100 µM | 13600 µM | 51100 µM | 19300 µM | 82200 µM
3 | O=C[C@@H](CO)O[C@H](C=O)c1c[nH]c(=O)[nH]c1=O |  | 389 µM |  | 595 µM |  | 329 µM |  | 428 µM |  | 402 µM |  | 513 µM |  | 536 µM |  | 614 µM |  | 219 µM |  | 237 µM
4 | Cc1ccc(S(=O)(=O)OC2CCN(C)CC2)cc1 |  | > 100 µM |  | > 100 µM |  | > 100 µM |  | > 100 µM |  | > 100 µM |  | > 100 µM |  | > 100 µM |  | 49.9 µM |  | > 100 µM |  | 42.3 µM
5 | Clc1ncnc(Cl)c1Cl |  | > 100 µM |  | > 100 µM |  |  |  | > 100 µM |  | > 100 µM |  | > 100 µM |  | > 100 µM |  | > 100 µM |  | > 100 µM |  | > 100 µM
6 | CC[C@]12CCCN3CCc4c(n(c5ccccc45)C(=O)C1)[C@@H]32 |  | > 86.3 µM |  | > 52.7 µM |  | > 100 µM |  | > 51.9 µM |  | 49.1 µM |  | > 49.6 µM |  | > 34.5 µM |  | 18 µM |  | > 100 µM |  | > 100 µM
7 | COc1ccc(C2CC(c3cc(OC)c(OC)c(OC)c3)=NO2)cc1OCCCCOc1cc2c(cc1OC)C(=O)N1CCC[C@H]1C=N2 (stereo partly specified) | 1.15 µM | 2.61 µM | 2.75 µM | 8.38 µM | 3.68 µM | 25 µM | 1.8 µM | 3.46 µM | 1.1 µM | 3.82 µM | 1.7 µM | 3.89 µM | 6.95 µM | 37.5 µM | 1.12 µM | 3.26 µM | 1.52 µM | 2.85 µM | 2.47 µM | 10.3 µM
8 | COc1cccc(C2c3cc4c(cc3OC(C)(N3CCCC3)C2C)OCO4)c1OC (stereo unspecified) |  | 52.9 µM |  | 22.3 µM |  | 78.2 µM |  |  |  | 52.5 µM |  | 17.7 µM |  | 76.8 µM |  | 22.5 µM |  | 51.5 µM |  | 71.2 µM
9 | O=[N+]([O-])c1ccc(S(=O)(=O)Cc2ccccc2)c([N+](=O)[O-])c1 |  | 5.99 µM |  | 5.55 µM |  | 4.36 µM |  | 3.8 µM |  | > 91.7 µM |  | 3.51 µM |  | > 51.8 µM |  | 6.03 µM |  | 5.22 µM |  | 3.38 µM
